Target: epidermal growth factor receptor (EGFR) (Homo sapiens, UniProt P00533)
Assay: EGFR kinase assay kit (BPS Bioscience) with Kinase-Glo Max luminescence
Format: biochemical

Sequence of epidermal growth factor receptor (EGFR) (P00533 25-1210): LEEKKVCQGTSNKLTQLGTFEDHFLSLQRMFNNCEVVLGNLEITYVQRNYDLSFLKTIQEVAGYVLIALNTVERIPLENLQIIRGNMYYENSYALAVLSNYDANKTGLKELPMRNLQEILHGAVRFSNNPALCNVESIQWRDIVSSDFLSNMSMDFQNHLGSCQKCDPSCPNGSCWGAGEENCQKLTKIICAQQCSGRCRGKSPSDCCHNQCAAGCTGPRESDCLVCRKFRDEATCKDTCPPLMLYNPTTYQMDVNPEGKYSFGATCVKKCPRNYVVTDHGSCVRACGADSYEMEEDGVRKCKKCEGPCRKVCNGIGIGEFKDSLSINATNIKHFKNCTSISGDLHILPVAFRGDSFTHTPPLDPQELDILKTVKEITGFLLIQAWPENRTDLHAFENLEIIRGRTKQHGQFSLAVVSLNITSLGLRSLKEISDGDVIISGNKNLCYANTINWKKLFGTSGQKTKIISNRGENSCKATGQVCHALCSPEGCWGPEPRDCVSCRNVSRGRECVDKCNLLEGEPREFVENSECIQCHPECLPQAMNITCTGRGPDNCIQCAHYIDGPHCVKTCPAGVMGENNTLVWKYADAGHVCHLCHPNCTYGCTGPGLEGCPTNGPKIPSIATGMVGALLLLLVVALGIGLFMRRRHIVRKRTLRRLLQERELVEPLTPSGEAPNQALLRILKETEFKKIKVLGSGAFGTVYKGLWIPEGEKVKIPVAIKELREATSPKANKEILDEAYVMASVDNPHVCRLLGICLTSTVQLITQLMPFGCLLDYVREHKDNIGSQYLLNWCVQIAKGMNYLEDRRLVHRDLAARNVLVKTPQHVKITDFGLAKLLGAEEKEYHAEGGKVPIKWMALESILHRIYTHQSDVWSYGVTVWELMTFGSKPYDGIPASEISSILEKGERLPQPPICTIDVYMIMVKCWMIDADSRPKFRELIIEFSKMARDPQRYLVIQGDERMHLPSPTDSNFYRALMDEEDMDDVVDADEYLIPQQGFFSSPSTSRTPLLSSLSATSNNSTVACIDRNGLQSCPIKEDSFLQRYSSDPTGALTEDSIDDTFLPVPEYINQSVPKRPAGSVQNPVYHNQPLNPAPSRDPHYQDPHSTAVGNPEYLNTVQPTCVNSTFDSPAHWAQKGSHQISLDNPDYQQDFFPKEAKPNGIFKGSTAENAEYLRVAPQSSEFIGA

IC50: 440 ± 20 nM
Compound: COc1cc2oc(-c3ccccc3)c(-c3c[nH]c4ccc(Br)cc34)c2cc1OC [8aa, 5-Bromo-3-(5,6-dimethoxy-2-phenylbenzofuran-3-yl)-1H-indole]

Reference: publication PMC10893492, “Anticancer Evaluation of Novel Benzofuran–Indole Hybrids as Epidermal Growth Factor Receptor Inhibitors against Non-Small-Cell Lung Cancer Cells” (Pharmaceuticals, 2024)
